Patent US9611256B2, “Alkyne-, azide- and triazole-containing flavonoids as modulators for multidrug resistance in cancers” (The Hong Kong Polytechnic University, priority 2012, dated 2017)

How the values were obtained:
BCRP = molecular target: T1, BCRP (Homo sapiens, UniProt Q9UNQ0); test: Reversal of BCRP-mediated topotecan resistance in MCF7-MX100 cells (cell proliferation assay); details: for % of reversion of sensitivity of MCF7-MX100 towards topotecan: triazole dimers at 1.0 μM; for Topotecan resistance of MCF7-MX100 Therapeutic index: (IC50 towards L929 or Raw264.7)/(EC50 for reversing drug resistance)
T1 sequence (Q9UNQ0 1-655): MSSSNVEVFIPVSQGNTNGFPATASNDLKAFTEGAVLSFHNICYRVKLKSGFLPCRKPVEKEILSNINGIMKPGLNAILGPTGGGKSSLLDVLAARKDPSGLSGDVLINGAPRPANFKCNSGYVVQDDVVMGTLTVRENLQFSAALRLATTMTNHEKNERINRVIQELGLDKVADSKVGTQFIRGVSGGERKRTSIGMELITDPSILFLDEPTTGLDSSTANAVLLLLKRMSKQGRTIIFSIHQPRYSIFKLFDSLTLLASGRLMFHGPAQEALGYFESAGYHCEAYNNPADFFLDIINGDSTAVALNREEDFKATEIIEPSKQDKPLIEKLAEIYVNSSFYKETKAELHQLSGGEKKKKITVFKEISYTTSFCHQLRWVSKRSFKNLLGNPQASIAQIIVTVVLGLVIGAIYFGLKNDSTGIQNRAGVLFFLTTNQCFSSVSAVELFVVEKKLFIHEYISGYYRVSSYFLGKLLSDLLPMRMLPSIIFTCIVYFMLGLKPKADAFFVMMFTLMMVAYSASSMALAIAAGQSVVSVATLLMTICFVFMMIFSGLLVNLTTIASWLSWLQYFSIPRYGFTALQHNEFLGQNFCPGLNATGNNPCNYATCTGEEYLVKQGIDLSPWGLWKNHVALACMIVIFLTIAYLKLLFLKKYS

in vitro = details: mouse
[1] = test system: P-gp, MRP1 and BCRP transporters; test: Selectivity for ABC transporters, determined from % of reversion (Tables 1 and 2); type: cell-based, human; details: determined from % of reversion in Table 1 (>80% strongly, 79-50% moderately selective)
Excerpt: Generally, the triazole dimers library can be divided into mono-selective, dual-selective and multi-selective ABC transporter modulators. Table 2 summarizes the selectivity of different active triazole dimers and some monomeric azides for the ABC transporters. […] From the study, it seems that the simple monomeric azides could be a highly BCRP-selective inhibitor. […] It is possible that differently selective (mono-, dual- and multi-) inhibitors of drug transporters could be potentially useful tools for investigation of complicated drug-resistance phenotypes and eventually, for treatment of drug-resistant cancers caused by overexpression of ABC transporters.
The selectivity of active triazole compounds for various ABC transporters was determined from the Table 1. It would be considered as strongly selective if it causes >80% of reversion. It would be considered as moderately selective if it results in 79-50% of reversion. Overall, the active triazole compounds can be divided into mono-, dual- and multi-selective for P-gp, MRP1 and BCRP transporters.

Compound	IC50 at 5 days (in vitro)	Selectivity for ABC transporters (P-gp, MRP1, BCRP) [1]	% of reversion of sensitivity of MCF7-MX100 towards topotecan (BCRP)	Topotecan resistance of MCF7-MX100 Therapeutic index (BCRP)
[N-]=[N+]=NCCOCCOCCOc1ccc(-c2cc(=O)c3cc(Cl)cc(Cl)c3o2)cc1 [Az6, 2-(4-(2-(2-(2-Azidoethoxy)ethoxy)ethoxy)phenyl)-6,8-dichloro-4H-chromen-4-one]	–	mono-BCRP selectivity	–	–
O=c1cc(-c2ccc(OCCOCCOCCn3cc(COCCOc4ccc5c(=O)cc(-c6ccccc6)oc5c4)nn3)cc2)oc2ccccc12 [Ac13Az2, 7-(2-((1-(2-(2-(2-(4-(4-Oxo-4H-chromen-2-yl)phenoxy)ethoxy)ethoxy)ethyl)-1H-1,2,3-triazol-4-yl)methoxy)ethoxy)-2-phenyl-4H-chromen-4-one]	< 12.1 µM	–	–	–
C#CCN(CCOc1ccc2c(=O)cc(-c3ccccc3)oc2c1)Cc1ccccc1 [Ac16, 7-(2-(Benzyl(prop-2-yn-1-yl)amino)ethoxy)-2-phenyl-4H-chromen-4-one]	58.2 µM	–	–	–
O=c1cc(-c2ccccc2)oc2cc(OCCCCc3cn(CCOCCOCCOc4ccc(-c5oc6ccccc6c(=O)c5OCc5ccccc5)cc4)nn3)ccc12 [Ac12Az5, 3-(Benzyloxy)-2-(4-(2-(2-(2-(4-(4-((4-oxo-2-phenyl-4H-chromen-7-yl)oxy)butyl)-1H-1,2,3-triazol-1-yl)ethoxy)ethoxy)ethoxy)phenyl)-4H-chromen-4-one]	–	multi-selectivity towards P-gp, MRP1 and BCRP transporters	–	–
Cc1ccc2oc(-c3ccc(OCCCCc4cn(CCOCCOc5ccc(-c6oc7ccccc7c(=O)c6OCc6ccccc6)cc5)nn4)cc3)cc(=O)c2c1 [Ac5Az10, 3-(Benzyloxy)-2-(4-(2-(2-(4-(4-(4-(6-methyl-4-oxo-4H-chromen-2-yl)phenoxy)butyl)-1H-1,2,3-triazol-1-yl)ethoxy)ethoxy)phenyl)-4H-chromen-4-one]	> 100 µM	mono-BCRP selectivity	about 80.0%	>13333.3
Cc1ccc2oc(-c3ccc(OCCCCc4cn(CCOCCOCCOc5ccc(-c6oc7ccccc7c(=O)c6O)cc5)nn4)cc3)cc(=O)c2c1 [Ac5Az5OH, 3-Hydroxy-2-(4-(2-(2-(2-(4-(4-(4-(6-methyl-4-oxo-4H-chromen-2-yl)phenoxy)butyl)-1H-1,2,3-triazol-1-yl)ethoxy)ethoxy)ethoxy)phenyl)-4H-chromen-4-one]	< 12.1 µM	–	–	–
[N-]=[N+]=NCCOCCOCCOc1ccc(-c2oc3ccccc3c(=O)c2OCc2ccccc2)cc1 [Az5, 2-(4-(2-(2-(2-Azidoethoxy)ethoxy)ethoxy)phenyl)-3-(benzyloxy)-4H-chromen-4-one]	–	mono-BCRP selectivity	–	–
Cc1ccc2oc(-c3ccc(OCCCCc4cn(CCN(CCOc5ccc6c(=O)cc(-c7ccccc7)oc6c5)Cc5ccccc5)nn4)cc3)cc(=O)c2c1 [Ac5Az15, 2-(4-(4-(1-(2-(Benzyl(2-((4-oxo-2-phenyl-4H-chromen-7-yl)oxy)ethyl)amino)ethyl)-1H-1,2,3-triazol-4-yl)butoxy)phenyl)-6-methyl-4H-chromen-4-one]	–	P-gp and MRP1-dual-selectivity	–	–
O=c1cc(-c2ccc(OCCOCCn3cc(CCCOc4ccc(-c5cc(=O)c6ccc(F)cc6o5)cc4)nn3)cc2)oc2ccccc12 [Ac3Az1, 7-Fluoro-2-(4-(3-(1-(2-(2-(4-(4-oxo-4H-chromen-2-yl)phenoxy)ethoxy)ethyl)-1H-1,2,3-triazol-4-yl)propoxy)phenyl)-4H-chromen-4-one]	> 100 µM	–	about 53.3%	–

More lines, main results first:

IC50 at 5 days (in vitro)	Selectivity for ABC transporters (P-gp, MRP1, BCRP) [1]	Compound	% of reversion of sensitivity of MCF7-MX100 towards topotecan (BCRP)	Topotecan resistance of MCF7-MX100 Therapeutic index (BCRP)
> 100 µM	–	O=c1cc(-c2ccc(OCCOCCn3cc(CN(CCOc4ccc5c(=O)cc(-c6ccccc6)oc5c4)Cc4ccccc4)nn3)cc2)oc2ccccc12 [Ac16Az1, 7-(2-(Benzyl((1-(2-(2-(4-(4-oxo-4H-chromen-2-yl)phenoxy)ethoxy)ethyl)-1H-1,2,3-triazol-4-yl)methyl)amino)ethoxy)-2-phenyl-4H-chromen-4-one]	80.0%	–
–	mono-BCRP selectivity	O=c1cc(-c2ccccc2)oc2cc(OCCOCCn3cc(COCCOc4ccc5c(=O)cc(-c6ccccc6)oc5c4)nn3)ccc12 [Ac13Az11, 7-(2-((1-(2-(2-((4-Oxo-2-phenyl-4H-chromen-7-yl)oxy)ethoxy)ethyl)-1H-1,2,3-triazol-4-yl)methoxy)ethoxy)-2-phenyl-4H-chromen-4-one]	–	–
< 12.1 µM	–	Cc1ccc2oc(-c3ccc(OCCCCc4cn(CCOCCOc5ccc(-c6oc7ccccc7c(=O)c6O)cc5)nn4)cc3)cc(=O)c2c1 [Ac5Az100H, 3-Hydroxy-2-(4-(2-(2-(4-(4-(4-(6-methyl-4-oxo-4H-chromen-2-yl)phenoxy)butyl)-1H-1,2,3-triazol-1-yl)ethoxy)ethoxy)phenyl)-4H-chromen-4-one]	–	–
> 100 µM	–	O=c1cc(-c2ccc(OCCOCCOCCn3cc(CN(CCOc4ccc5c(=O)cc(-c6ccccc6)oc5c4)Cc4ccccc4)nn3)cc2)oc2ccccc12 [Ac16Az2, 7-(2-(Benzyl((1-(2-(2-(2-(4-(4-oxo-4H-chromen-2-yl)phenoxy)ethoxy)ethoxy)ethyl)-1H-1,2,3-triazol-4-yl)methyl)amino)ethoxy)-2-phenyl-4H-chromen-4-one]	–	–
> 100 µM	mono-BCRP selectivity	O=c1[nH]c(-c2ccc(OCCCc3cn(CCOCCOc4ccc(-c5cc(=O)c6ccccc6o5)cc4)nn3)cc2)nc2ccccc12 [Ac11Az1, 2-(4-(3-(1-(2-(2-(4-(4-Oxo-4H-chromen-2-yl)phenoxy)ethoxy)ethyl)-1H-1,2,3-triazol-4-yl)propoxy)phenyl)quinazolin-4(3H)-one]	–	>3225.8
< 12.1 µM	–	O=c1[nH]c(-c2ccc(OCCCc3cn(CCOCCOCCOc4ccc(-c5cc(=O)c6ccccc6o5)cc4)nn3)cc2)nc2ccccc12 [Ac11Az2, 2-(4-(3-(1-(2-(2-(2-(4-(4-oxo-4H-chromen-2-yl)phenoxy)ethoxy)ethoxy)ethyl)-1H-1,2,3-triazol-4-yl)propoxy)phenyl)quinazolin-4(3H)-one]	–	–
32.2 µM	–	C#CCOCCOc1ccc2c(=O)cc(-c3ccccc3)oc2c1 [Ac13, 2-Phenyl-7-(2-(prop-2-yn-1-yloxy)ethoxy)-4H-chromen-4-one]	–	–
–	P-gp and MRP1-dual-selectivity	Cc1ccc2oc(-c3ccc(OCCCCc4cn(CCOCCOCCOc5ccc(-c6cc(=O)c7cc(C)ccc7o6)cc5)nn4)cc3)cc(=O)c2c1 [Ac5Az3, 6-Methyl-2-(4-(2-(2-(2-(4-(4-(4-(6-methyl-4-oxo-4H-chromen-2-yl)phenoxy)butyl)-1H-1,2,3-triazol-1-yl)ethoxy)ethoxy)ethoxy)phenyl)-4H-chromen-4-one]	–	–
67.5 µM	mono-BCRP selectivity	COC(=O)c1cccc(COc2c(-c3ccc(OCCOCCN=[N+]=[N-])cc3)oc3ccccc3c2=O)c1 [Az8, Methyl 3-(((2-(4-(2-(2-azidoethoxy)ethoxy)phenyl)-4-oxo-4H-chromen-3-yl)oxy)methyl)benzoate]	–	562.5
< 12.1 µM	–	COCOc1cc(OCc2ccccc2)c2c(=O)cc(-c3ccc(OCCCc4cn(CCOCCOc5ccc(-c6cc(=O)c7ccccc7o6)cc5)nn4)cc3)oc2c1 [Ac4Az1, 5-(Benzyloxy)-7-(methoxymethoxy)-2-(4-(3-(1-(2-(2-(4-(4-oxo-4H-chromen-2-yl)phenoxy)ethoxy)ethyl)-1H-1,2,3-triazol-4-yl)propoxy)phenyl)-4H-chromen-4-one]	–	–
< 12.1 µM	mono-BCRP selectivity	O=c1cc(-c2ccccc2)oc2cc(OCCOCCOCCn3cc(COCCOc4ccc5c(=O)cc(-c6ccccc6)oc5c4)nn3)ccc12 [Ac13Az12, 7-(2-((1-(2-(2-(2-((4-Oxo-2-phenyl-4H-chromen-7-yl)oxy)ethoxy)ethoxy)ethyl)-1H-1,2,3-triazol-4-yl)methoxy)ethoxy)-2-phenyl-4H-chromen-4-one]	–	–
–	mono-BCRP selectivity	O=c1cc(-c2ccccc2)oc2cc(OCCOCCOCCn3cc(CN(Cc4ccccc4)Cc4cn(CCOCCOCCOc5ccc6c(=O)cc(-c7ccccc7)oc6c5)nn4)nn3)ccc12 [Ac15Az12, 7,7′-(((((((4,4′-((Benzylazanediyl)bis(methylene))bis(1H-1,2,3-triazole-4,1-diyl))bis(ethane-2,1-diyl))bis(oxy))bis(ethane-2,1-diyl))bis(oxy))bis(ethane-2,1-diyl))bis(oxy))bis(2-phenyl-4H-chromen-4-one)]	–	–
